Here are results for 14 molecules from patent publication US5324648A, “Substituted isocoumarins as serine protease inhibitors and anti-inflammatory agents” (Georgia Tech Research Corporation, priority 1992, dated 1994).

Read-outs that look alike come from different tables or passages of the source. Some results are limits rather than exact numbers.

The target of test [1] is T1, porcine pancreatic elastase (PPE) (Sus scrofa, UniProt P00772).
T1 construct: from tissue; host or cells: porcine pancreas (from the name)
T1 sequence (P00772 27-266): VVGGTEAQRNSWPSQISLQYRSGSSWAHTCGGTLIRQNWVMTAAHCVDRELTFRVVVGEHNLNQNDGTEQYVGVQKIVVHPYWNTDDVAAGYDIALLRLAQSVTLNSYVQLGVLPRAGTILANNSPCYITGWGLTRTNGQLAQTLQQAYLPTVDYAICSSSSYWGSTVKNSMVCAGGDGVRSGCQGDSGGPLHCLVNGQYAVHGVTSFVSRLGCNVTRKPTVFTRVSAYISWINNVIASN
The test is described as follows: Inactivation of porcine pancreatic elastase (PPE). It counts as biochemical. Particulars: Table XVI; pH 7.5, 25° C; [I] 0.04-2.0 mM; read-out: kobs/[I].

The target of test [2] is T2, human leukocyte elastase (HLE) (Homo sapiens, UniProt P08246).
T2 construct: from tissue; host or cells: human leukocytes (from the name)
T2 sequence (P08246 30-267): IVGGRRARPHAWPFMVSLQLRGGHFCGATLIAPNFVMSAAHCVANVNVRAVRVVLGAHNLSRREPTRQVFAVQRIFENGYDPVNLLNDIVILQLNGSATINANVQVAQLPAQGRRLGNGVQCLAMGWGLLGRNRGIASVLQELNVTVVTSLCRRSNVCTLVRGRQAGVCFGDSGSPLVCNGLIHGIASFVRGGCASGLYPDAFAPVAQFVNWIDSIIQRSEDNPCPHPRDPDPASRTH
The test can be described thus: Inactivation of human leukocyte elastase (HLE). It counts as biochemical. The conditions noted are these: Table XVI.
Experimental: (§15) Inactivation rates of serine proteases by substituted isocoumarins were measured by the incubation method. An aliquot of inhibitor (25 or 50 μl) in Me2 SO was added to a buffered enzyme solution (0.01-2.3 μM) to initiate the inactivation. Aliquots (50 μl) were withdrawn at various intervals and the residual enzymatic activity was measured. Me2 SO concentration in the reaction mixture was 8-12% (v/v). 0.1 Hepes, 0.01M CaCl2, pH 7.5 buffer was utilized for trypsin and coagulation enzymes. 0.1M Hepes, 0.5M NaCl, pH 7.5 was utilized for other serine proteases. […] Peptide thioesters or peptide nitroanilides with appropriate sequence were used as substrates for various serine proteases. All peptide thioester hydrolysis rates were measured with assay mixtures containing 4,4'-dithiodipyridine (ε324 =19800M^-1 cm^-1 ; Grasetti & Murray, Arch. Biochem. Biophys. 119, pp 41-49 (1967)). Peptide 4-nitroanilide nitroanilide hydrolysis was measured at 410 nm (ε410 =8800M^-1 cm^-1 ; Erlanger et al., Arch. Biochem. Biophys. 95, pp 271-278 (1961)). First order inactivation rate constant (kobs) were obtained from plots of ln (vt /vo) vs time, and the correlation coefficients were greater than 0.98.
(§16) ^a Inactivation rates were measured at 0.1M Hepes, 0.5 NaCl, pH 7.5,
(§17) 8-12% Me2 SO and 25° C. by incubation method.
(§18) ^a Inhibition rates were measured in 0.1M Hepes, 0.05M NaCl, pH 7.5
buffer, 8-9% Me2 SO and at 25° C.
^a Inhibition constants were in 0.1M Hepes, 0.5M NaCl, pH 7.5 buffer,
8-9% Me2 SO and at 25° C.
^a Inhibition rates were measured in 0.1M Hepes, 0.5M NaCl, 2.5%
Me2 SO, pH 7,5 and at 25° C.
(§19) ^a Inhibition was measured in 0.1M Hepes, 0.5M NaCl, pH 7.5 buffer,
(§20) 5-10% Me2 SO and at 25° C. Suc--Val--Pro--Phe--NA (0.48 mM)
(§21) was used as the substrate for chymotrypsin and cat G.
^a Inhibition rates were measured in 0.1M Hepes, 0.5M NaCl, pH 7.5

The target of another test is chymotrypsin (Bos taurus, UniProt P00766). The test is described as follows: Inactivation of chymotrypsin. It counts as biochemical, bovine. Particulars: Table XVI, read-out: kobs/[I].
The target of a further test is T3, cathepsin G (Homo sapiens, UniProt P08311).
T3 construct: from tissue; host or cells: human leukocytes
T3 sequence (P08311 21-255): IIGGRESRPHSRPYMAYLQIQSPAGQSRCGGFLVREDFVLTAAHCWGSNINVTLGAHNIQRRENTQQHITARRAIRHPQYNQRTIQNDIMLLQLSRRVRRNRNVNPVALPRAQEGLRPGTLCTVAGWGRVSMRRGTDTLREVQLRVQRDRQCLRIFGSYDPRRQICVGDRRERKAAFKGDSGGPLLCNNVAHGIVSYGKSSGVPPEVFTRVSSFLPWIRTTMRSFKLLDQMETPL
The test is described as follows: Inactivation of cathepsin G. Further details: percentage of inhibition: concentration or dose not given beside the values. The class given is biochemical. Particulars: Table XVI; for kinact/KI: pH 7.5, 25° C, [I] 35-710 μM, read-out: kobs/[I]; for percentage of inhibition: after 5 min incubation.

A further test addresses T4, bovine thrombin (Bos taurus, UniProt P00735).
T4 construct: bovine thrombin
The test is described as follows: Inactivation rate of bovine thrombin. It counts as biochemical. Particulars: Table VIII; pH 7.5, 25° C; [I] 1.2-54 μM; read-out: kobs/[I]. As to the method:
(§1) Inactivation rates of serine proteases by substituted isocoumarins were measured by the incubation method. An aliquot of inhibitor (25 or 50 μl) in Me2 SO was added to a buffered enzyme solution (0.01-2.3 μM) to initiate the inactivation. Aliquots (50 μl) were withdrawn at various intervals and the residual enzymatic activity was measured. Me2 SO concentration in the reaction mixture was 8-12% (v/v). 0.1 Hepes, 0.01M CaCl2, pH 7.5 buffer was utilized for trypsin and coagulation enzymes. 0.1M Hepes, 0.5M NaCl, pH 7.5 was utilized for other serine proteases. The inhibitor concentrations are shown in all the tables. Peptide thioesters or peptide nitroanilides with appropriate sequence were used as substrates for various serine proteases. All peptide thioester hydrolysis rates were measured with assay mixtures containing 4,4'-dithiodipyridine (ε324 =19800M^-1 cm^-1; Grasetti & Murray, Arch. Biochem. Biophys. 119, pp 41-49 (1967)). Peptide 4-nitroanilide nitroanilide hydrolysis was measured at 410 nm (ε410 =8800M^-1 cm^-1; Erlanger et al., Arch. Biochem. Biophys. 95, pp 271-278 (1961)). First order inactivation rate constant (kobs) were obtained from plots of ln (vt /vo) vs time, and the correlation coefficients were greater than 0.98.
(§2) ^a Conditions were as 0.1M Hepes, 0.01M CaCl2, pH 7.5 and 8-12%
(§3) Me2 SO and 25° C. Rate constants were measured by incubation
(§4) method unless otherwise noted. An aliquot of inhibitor was added to an
(§5) enzyme solution and aliquots removed with time and assayed for remaining
(§6) enzymatic activity. Firstorder rate constants, kobs were obtained
(§7) from the plots of ln(vt /vo) versus time.
(§8) ^a Inhibition rates were measured in 0.1M Hepes, 0.01M CaCl2, pH
(§9) 7.5 buffer, 8% Me2 SO and at 25° C.

The next test deals with T5, human thrombin (Homo sapiens, UniProt P00734).
T5 construct: human thrombin
The test is described as follows: Inactivation rate of human thrombin. The conditions noted are these: Table VIII; pH 7.5, 25° C; [I] 1.2-54 μM; read-out: kobs/[I]. The class given is biochemical. As for the experimental part: as §1, §8, §9

The target in another test is T6, bovine trypsin (Bos taurus, UniProt P00760).
T6 sequence (P00760 24-246): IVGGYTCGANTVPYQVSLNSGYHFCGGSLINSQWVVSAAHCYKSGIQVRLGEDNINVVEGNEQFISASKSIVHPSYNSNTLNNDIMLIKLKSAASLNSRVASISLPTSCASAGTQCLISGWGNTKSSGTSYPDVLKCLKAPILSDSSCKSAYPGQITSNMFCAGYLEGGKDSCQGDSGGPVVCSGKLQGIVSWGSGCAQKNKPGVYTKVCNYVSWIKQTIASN
The test can be described thus: Inactivation rate of bovine trypsin. Particulars: Table VIII; pH 7.5, 25° C; [I] 1.1-4.6 μM; read-out: kobs/[I]. The class given is biochemical. As to the method: as §1, §2, §3, §4, §5, §6, §7, §8, §9

For a further test, the target named is human lung tryptase. The test can be described thus: Inactivation rate of human lung tryptase. The conditions noted are these: Table IX. It counts as biochemical. As for the experimental part: as §1
^a Inactivation rates were measured at 0.1M Hepes, 0.5M NaCl, pH 7.5
buffer, 8% Me2 SO and 25° C.
as §8
(§10) 7.5 buffer for human plasmin; 25 mM Phosphate, 0.5M NaCl, 1 mM EDTA, pH
(§11) 7.5 buffer for rat skin tryptase and 0.1M Hepes, 0.5M NaCl, pH 7.5 for
(§12) human lung tryptase, human skin tryptase and rt-PA. All enzymes were
(§13) assayed with ZArg-SBzl (0.07 mM) in the presence of 4,4dithiodipyridine
(§14) (0.33 mM). Reaction mixtures contained 8% Me2 SO and assays were […]

The next test has as its target T7, rat skin tryptase (Rattus norvegicus, UniProt P27435).
T7 construct: from tissue; host or cells: rat skin
The test can be described thus: Inactivation rate of rat skin tryptase. Particulars: pH 7.5, Table IX; pH 7.5, 25° C; [I] 0.42-0.51 μM; read-out: kobs/[I]. The class given is biochemical. As for the experimental part: as §1
^b Inactivation rates were measured at 25 mM phosphate, 0.5M NaCl, 1
mM EDTA, pH 7.5 buffer, 9% Me2 SO and 25° C.
as §8, §10, §11, §12, §13, §14

The target of test [3] is recombinant human tissue plasminogen activator (Homo sapiens, UniProt P00750). The test can be described thus: Inactivation rate of recombinant human tissue plasminogen activator. The class given is biochemical. The conditions noted are these: pH 7.5, Table IX; pH 7.5, 25° C; [I] 3.5-5.0 μM; read-out: kobs/[I]. As for the experimental part: as §1
Chain of recombinant human tissue plasminogen activator (P00750 36-562): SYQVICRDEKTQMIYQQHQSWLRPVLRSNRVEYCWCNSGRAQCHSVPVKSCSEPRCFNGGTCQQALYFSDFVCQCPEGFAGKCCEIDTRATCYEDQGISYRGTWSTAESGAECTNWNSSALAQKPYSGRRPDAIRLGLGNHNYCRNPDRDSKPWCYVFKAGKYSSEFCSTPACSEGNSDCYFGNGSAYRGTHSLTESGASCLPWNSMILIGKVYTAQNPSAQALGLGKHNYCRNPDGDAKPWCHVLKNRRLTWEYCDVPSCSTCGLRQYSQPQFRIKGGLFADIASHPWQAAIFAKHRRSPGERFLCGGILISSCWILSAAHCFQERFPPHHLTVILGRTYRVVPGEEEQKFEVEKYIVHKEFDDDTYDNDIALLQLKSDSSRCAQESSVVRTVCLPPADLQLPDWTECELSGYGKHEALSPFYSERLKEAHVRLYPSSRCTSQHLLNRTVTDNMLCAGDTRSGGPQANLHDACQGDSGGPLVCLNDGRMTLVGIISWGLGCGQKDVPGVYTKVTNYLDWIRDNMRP
^a Inactivation constants were measured at 0.1M Hepes, 0.5M NaCl (or
as §8, §10, §11, §12, §13, §14

Setting [4] is: pH 7.5, 25° C, [I] 0.07-710 μM, read-out: kobs/[I].
Where [5] appears, read: pH 7.5, second order, equimolar inhibitor and enzyme.
Setting [6] is: pH 7.5, second order, equimolar inhibitor and enzyme, read-out: kobs/[I].

T7 sequence (P27435 29-273): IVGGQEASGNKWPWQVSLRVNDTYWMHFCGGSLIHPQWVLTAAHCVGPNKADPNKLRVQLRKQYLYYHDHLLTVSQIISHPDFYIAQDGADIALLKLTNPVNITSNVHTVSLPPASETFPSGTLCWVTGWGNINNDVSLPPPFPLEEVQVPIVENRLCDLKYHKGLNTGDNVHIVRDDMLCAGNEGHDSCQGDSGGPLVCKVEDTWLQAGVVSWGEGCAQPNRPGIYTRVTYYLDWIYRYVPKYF
Experimental for cathepsin G: as §15, §16, §17
and assayed for remaining activity.
as §18
buffer, 8-9% Me2 SO and at 25° C.
Me2 SO, pH 7,5 and at 25° C.
as §19, §20, §21

Regarding `O=c1oc(OCCBr)c(Cl)c2ccc([N+](=O)[O-])cc12` [7-nitro-4-chloro-3-(2-bromoethoxy)isocoumarin], the kinact/KI in [1] stood at 6330 M⁻¹ s⁻¹; in [2] (setting [4]), 65600 M⁻¹ s⁻¹; on chymotrypsin (setting [5]), 98000 M⁻¹ s⁻¹; on cathepsin G, 710 M⁻¹ s⁻¹.

Consider `O=C(Cc1ccccc1)Nc1ccc2c(Cl)c(OCCBr)oc(=O)c2c1` [7-phenylacetylamino-4-chloro-3-(2-bromoethoxy)isocoumarin], for which the kinact/KI in test [1] is 4950 M⁻¹ s⁻¹; in test [2] (setting [6]), 480000 M⁻¹ s⁻¹; at chymotrypsin (setting [5]), 82000 M⁻¹ s⁻¹; at cathepsin G, 70 M⁻¹ s⁻¹.

In the case of `O=C(Cc1ccccc1)Nc1ccc2c(Cl)c(OCCCBr)oc(=O)c2c1` [7-phenylacetylamino-4-chloro-3-(3-bromopropoxy)isocoumarin], the kinact/KI in [1] amounted to 28 M⁻¹ s⁻¹; in [2] (setting [4]), 32400 M⁻¹ s⁻¹; at chymotrypsin (setting [5]), 140000 M⁻¹ s⁻¹. On cathepsin G, this molecule came in with a percentage of inhibition of 28%.

As for `O=C(Nc1ccccc1)Nc1ccc2c(Cl)c(OCCCBr)oc(=O)c2c1` [7-phenylcarbamoylamino-4-chloro-3-(3-bromopropoxy)isocoumarin], the kinact/KI in test [1] was 4 M⁻¹ s⁻¹; in [2] (pH 7.5, biphasic plot, read-out: kobs/[I] (biphasic, first value)), 13800 M⁻¹ s⁻¹; in test [2] (pH 7.5, biphasic plot, read-out: kobs/[I] (biphasic, second value)), 2890 M⁻¹ s⁻¹; at chymotrypsin (pH 7.5, 25° C, [I] 1.7-58 μM), 180 M⁻¹ s⁻¹. The same molecule gave a percentage of inhibition at cathepsin G of 17%.

For the molecule `O=c1oc(OCCBr)c(Cl)c2ccc(NC(=S)Nc3ccccc3)cc12` [7-phenylthiocarbamoylamino-4-chloro-3-(2-bromoethoxy)isocoumarin], the kinact/KI is 1250 M⁻¹ s⁻¹ in test [1], > 480000 M⁻¹ s⁻¹ in test [2] (setting [6]), 39000 M⁻¹ s⁻¹ at chymotrypsin (setting [5]) and 200 M⁻¹ s⁻¹ at cathepsin G.

In the case of `CC(C)NC(=O)Nc1ccc2c(Cl)c(OCCSC(=N)N)oc(=O)c2c1` [(CH3)2 CHNHCONH-CiTEtOIC, 7-(isopropylcarbamoylamino)-4-chloro-3-(2-isothiureidoethoxy)isocoumarin], the kinact/KI on bovine thrombin is 4100 M⁻¹ s⁻¹; at human thrombin, 5000 M⁻¹ s⁻¹.

As for `C[C@H](NC(=O)OC(C)(C)C)C(=O)N[C@@H](C)C(=O)Nc1ccc2c(Cl)c(OCCSC(=N)N)oc(=O)c2c1` [Boc--Ala-- Ala--NH-CiTEtOIC, 7-(N-t-butyloxycarbonyl-L-alanyl-L-alanylamino)-4-chloro-3-(2-isothiureidoethoxy)isocoumarin], the kinact/KI at bovine thrombin turned out to be 1530 M⁻¹ s⁻¹; on human thrombin, 970 M⁻¹ s⁻¹.

For `CC(C)(C)OC(=O)N[C@H](Cc1ccccc1)C(=O)Nc1ccc2c(Cl)c(OCCCSC(=N)N)oc(=O)c2c1` [Boc-D-Phe--NH-CiTPrOIC, 7-(N-t-butyloxycarbonyl-D-phenylalanylamino)-4-chloro-3-(3-isothiureidopropoxy)isocoumarin], the kinact/KI was found to be 190 M⁻¹ s⁻¹ on bovine thrombin, 105000 M⁻¹ s⁻¹ at bovine trypsin and 230 M⁻¹ s⁻¹ on human thrombin.

Regarding `CC(C)(C)OC(=O)N[C@@H](Cc1ccccc1)C(=O)Nc1ccc2c(Cl)c(OCCCSC(=N)N)oc(=O)c2c1` [Boc-L-Phe--NH-CiTPrOIC, 7-(N-t-butyloxycarbonyl-L-phenylalanylamino)-4-chloro-3-(3-isothiureidopropoxy)isocoumarin], the kinact/KI on bovine thrombin worked out at 330 M⁻¹ s⁻¹; at human thrombin, 520 M⁻¹ s⁻¹; on rat skin tryptase it was 150000 M⁻¹ s⁻¹; in test [3], 6000 M⁻¹ s⁻¹. The “kobs/[I]” value on human lung tryptase (pH 7.5, 25° C, [I] 0.42-0.47 μM) is listed as 170,000 M^-1 s^-1.

Turning to `N=C(N)SCCCOc1oc(=O)c2cc(NC(=O)[C@H](N)Cc3ccccc3)ccc2c1Cl` [D-Phe--NH-CiTPrOIC, 7-(D-phenylalanylamino)-4-chloro-3-(3-isothiureidopropoxy)isocoumarin], the kinact/KI on bovine thrombin was found to be 180 M⁻¹ s⁻¹; at bovine trypsin, 68300 M⁻¹ s⁻¹; on human thrombin, 220 M⁻¹ s⁻¹.

In the case of `N=C(N)SCCCOc1oc(=O)c2cc(NC(=O)[C@@H](N)Cc3ccccc3)ccc2c1Cl` [L-Phe--NH-CiTPrOIC, 7-(L-phenylalanylamino)-4-chloro-3-(3-isothiureidopropoxy)isocoumarin], the kinact/KI on bovine thrombin was 400 M⁻¹ s⁻¹; on human thrombin it was 470 M⁻¹ s⁻¹; at rat skin tryptase it was 96000 M⁻¹ s⁻¹; in test [3], 11000 M⁻¹ s⁻¹. Besides, in the test on human lung tryptase (not time dependent, at 0.34-5.0 μM), the percentage of inhibition came out at 54%.

Consider `N=C(N)SCCOc1oc(=O)c2cc(NC(=O)Nc3cccc4ccccc34)ccc2c1Cl` [Naphthyl-NHCONH-CiTEtOIC, 7-(1-naphthylcarbamoylamino)-4-chloro-3-(2-isothiureidoethoxy)isocoumarin], for which the kinact/KI stood at 17500 M⁻¹ s⁻¹ at bovine thrombin and 5800 M⁻¹ s⁻¹ on human thrombin.

`N=C(N)SCCOc1oc(=O)c2cc(NC(=S)Nc3ccccc3)ccc2c1Cl` [PhNHCSNH-CiTEtOIC, 7-phenylthiocarbamoylamino-4-chloro-3-(2-isothiureidoethoxy)isocoumarin]: the kinact/KI on human thrombin was 21400 M⁻¹ s⁻¹.

In the case of `N=C(N)SCCOc1oc(=O)c2cc(NC(=S)Nc3cccc(C(=O)O)c3)ccc2c1Cl` [m-Carboxy-PhNHCSNH-CiTEtOIC, 7-(m-carboxyphenylthiocarbamoyl)amino-4-chloro-3-(2-isothiureidoethoxy)isocoumarin], on human thrombin, the kinact/KI came out at 17500 M⁻¹ s⁻¹.
